Values quoted from earlier work as cited in patent publication US11274111B2, “Arginase inhibitors and methods of use” (Merck Sharp & Dohme Corp., priority 2018, dated 2022).

What was measured:
[1] = test system: experimental autoimmune encephalomyelitis; conditions: cited from earlier work
guinea pigs = conditions: nebulizer treatment, allergic asthma model; cited from earlier work
live female rabbits = conditions: cited from earlier work
[2] = test system: corpus cavernosum of the diabetic person; conditions: ex vivo; cited from earlier work
[3] = test system: rabbit and human penile corpus cavernosum; conditions: cited from earlier work
[4] = test system: opossum internal anal sphincter muscle; conditions: cited from earlier work
live male rabbits = conditions: cited from earlier work

N[C@@H](CCCCB(O)O)C(=O)O [ABH, (S)-2-amino-6-boronohexanoic acid]
disease score [1]: improves the disease score of animals
airway hyperresponsiveness (guinea pigs): prevents airway hyperresponsiveness
engorgement response in the genitalia (live female rabbits): enhances the engorgement response
nitric oxide biosynthesis [2]: restores nitric oxide biosynthesis
nitric oxide-dependent relaxation of corpus cavernosum [3]: enhances the nitric oxide-dependent relaxation of this tissue
relaxation of internal anal sphincter muscle [4]: relax this muscle
erectile response (live male rabbits): enhances the erectile response
